In US20230101743A1, “SUBSTITUTED TRIAZINE COMPOUNDS AND USES THEREOF” (MUSC FOUNDATION FOR RESEARCH DEVELOPMENT, priority 2020, published 2023):

Assays:
[1] = Solubilities in water and 1 x PBS buffer (UV-vis); format: physicochemical; conditions: 25° C.
Protocol: The molar extinction co-efficients of exemplary cholesterol lowering compounds were measured in 1 x PBS buffer. The compounds were first dissolved in dimethyl sulfoxide. Solutions with a 0.5 mg/ml concentration were then prepared in DMSO. These solutions were diluted further with 1 x PBS by 100-fold, resulting in solutions with a 5 ug/ml concentration. The resulted diluted solutions were then measured and scanned using a UV-vis spectrophotometer for ultra-violet absorbances between 240 nm to 400 nm, using a UV 96-well microplate. The maximum UV absorbances and corresponding wavelengths were recorded (Table 1). The absorbance values were subtracted by that of a blank, 1 x PBS buffer containing […]. The volume of the solutions for UV measurements was 300 ul and the depth of the solutions was 0.7 cm. The molar extinction co-efficients were then calculated based on formula
The solubilities of the exemplary cholesterol lowering compounds were measured in water and 1 x PBS buffer. The compounds were first stirred with water and 1 x PBS buffer individually at room temperature for 1 h. The suspensions were then centrifuged for 2 min. The top clear solutions were filtered through filter paper, resulting in mother liquids, which were centrifuged again and diluted with 1 x PBS buffer for 10-fold for the solubilities in water and 100-fold the solubilities in 1 x PBS buffer. The resulted solutions were measured using a UV-vis spectrophotometer for UV absorbances with the maximum absorbances. The values were subtracted by that of a blank, 1 x PBS buffer. The corrected absorbances were then used to calculate the corresponding concentrations using the formula (1) and extinction coefficients (Table 1) shown above. The individual concentrations were then used to calculate the solubilities in 1.0 mL of water and 1 x PBS buffer.
The compounds were dissolved in DMSO to either 50 mg/ml, 10 mg/ml or 5 mg/ml solutions, which were diluted to 0.5 mg/ml with DMSO. These solutions were then diluted to 5 ug/ml with 1 x PBS buffer. The resulted solutions were then measured in a UV-vis spectrophotometer for UV scanning from 240 nm to 400 nm at 25° C. The absorbance values were subtracted by that of a blank, 1 x PBS buffer containing DMSO. The total volume of the solutions was 300 uL and the path length for each well was 0.7 cm in a UV 96-well plate. The extinction coefficients of the compounds were then calculated based on molar concentrations and the corrected UV absorbances at the maximum absorption (Table 1).
The mixtures wer stirred for 1 h at room temperature, transferred to 1.5 mL Eppendorf tubes, and centrifuged for 2 min. The clear solutions were filtered through filter papers, affording clear solutions, which were centrifuged again for 2 min. The top clear solutions were diluted by 1 x PBS buffer by 10-fold for the solubilities in water and 100-fold for the solubilities in 1 x PBS buffer. The new clear solutions were then measured individually using a UV-vis spectrophotometer and a UV 96-well microplate. The absorbance values were subtracted by that of a blank, 1 x PBS buffer. Concentrations and solubilities of the compounds were then calculated using their extinct coefficients and the corrected UV absorbances at the maximum absorptions (Table 1).

[2] = test system: apolipoprotein B (APOB-100); assay: Secreted APOB ELISA in human iPSC-derived hepatocyte-like cells; format: cell-based
Protocol: D. Human iPSC-derived hepatocytes were treated with DL-1 with concentrations ranging from 0.0325 to 12 or 48 μg/mL for 24 hours. Pre-drug and Post-drug medium were collected for analysis. Albumin and APOB levels were determined via ELISA assay. All secreted proteins were compared to non-treated cells. […] Data are shown as mean±SEM of four replicates (n=4); * p<0.01.
E. Human iPSC-derived hepatocytes were treated with 2 μg/mL of DL-1 from 8 to 48 hours. Albumin, APOPA, and APOB level in the culture medium were determined via ELISA. All secreted proteins were compared to non-treated cells. In FIG. 5, accumulated APOB in the medium from different time-point was measured and normalized to albumin level. […]
F. Twenty-one compounds that are structurally similar to DL-1 were tested with the concentration of 2 μg/mL in human iPSC-derived hepatocytes for 24 hours. Secreted APOB levels were determined and compared to the DMSO-treated group. […] Data is shown as mean±SEM of replicates (n=8) and as quantification value of each derivative. […]
Differentiated human hepatocyte-like cells were treated with representative compounds of the invention (2 μg/mL) or equivalent amount of DMSO (0.5%) as the placebo group for 24 hours. […] The secreted level of apolipoprotein B (APOB-100), the core protein of LDL-C, were determined via enzyme-linked immunosorbent assay (ELISA). […]

Solubility in 1.0 ml PBS buffer ([1]; 1 × PBS buffer): 25 µg
Solubility in 1.0 ml water ([1]; water): 0.37 µg
SMILES: Sc1nc(S)nc(Nc2ccc(Nc3ccccc3)cc2)n1 (racemic) [DL-1, 6-{[4-(phenylamino)phenyl]amino}-1,3,5-triazine-2,4-dithiol]
APOB level in culture medium, time course ([2]; 2 μg/mL, 8 to 48 hours): reduces APOB level in a time-dependent manner
APOB secretion level, dose-response ([2]; 0.0325 to 12 or 48 μg/mL, 24 hours): reduces APOB secretion level in a dose-response manner
